Numbers after ± are expanded uncertainties.
Experiment: excess molar enthalpy (molar enthalpy of mixing); xn = mol fraction of the nth substance listed
Conditions: 101 kPa, Liquid, Calvet calorimetry

[Ca] [calcium] + [Ag]
Conditions | excess molar enthalpy [kcal/mol]
1131 K, x1 = 0.7564 | -3.38 ± 0.478
1131 K, x1 = 0.8188 | -2.59 ± 0.478
1131 K, x1 = 0.8703 | -1.83 ± 0.478
1131 K, x1 = 0.8808 | -1.66 ± 0.478
1131 K, x1 = 0.9156 | -1.19 ± 0.478
1131 K, x1 = 0.9224 | -1.1 ± 0.478
1131 K, x1 = 0.9626 | -0.537 ± 0.478
1131 K, x1 = 0.9647 | -0.496 ± 0.478
1254 K, x1 = 0.0642 | -1.32 ± 0.478
1254 K, x1 = 0.0984 | -1.7 ± 0.478
1254 K, x1 = 0.1103 | -1.83 ± 0.478
1254 K, x1 = 0.1123 | -2.28 ± 0.478
1254 K, x1 = 0.1203 | -2.04 ± 0.478
1254 K, x1 = 0.1288 | -2.6 ± 0.478
1254 K, x1 = 0.1327 | -2.32 ± 0.478
1254 K, x1 = 0.1487 | -2.66 ± 0.478
1254 K, x1 = 0.1699 | -3.08 ± 0.478
1254 K, x1 = 0.1893 | -3.43 ± 0.478
1254 K, x1 = 0.1897 | -3.31 ± 0.478
1254 K, x1 = 0.2073 | -3.25 ± 0.478
1254 K, x1 = 0.2145 | -3.87 ± 0.478
1254 K, x1 = 0.2393 | -3.77 ± 0.478
1254 K, x1 = 0.2405 | -4.25 ± 0.478
1254 K, x1 = 0.249 | -4.69 ± 0.478
1254 K, x1 = 0.2673 | -4.17 ± 0.478
1254 K, x1 = 0.2711 | -4.66 ± 0.478
1254 K, x1 = 0.2999 | -4.55 ± 0.478
1254 K, x1 = 0.3115 | -5.08 ± 0.478
1254 K, x1 = 0.3416 | -4.95 ± 0.478
1254 K, x1 = 0.3685 | -5.53 ± 0.478
1254 K, x1 = 0.3962 | -5.28 ± 0.478
1254 K, x1 = 0.4438 | -5.82 ± 0.478
1254 K, x1 = 0.4634 | -5.88 ± 0.478
1254 K, x1 = 0.4708 | -5.44 ± 0.478
1254 K, x1 = 0.5175 | -5.79 ± 0.478
1254 K, x1 = 0.5477 | -5.3 ± 0.478
1254 K, x1 = 0.5562 | -5.62 ± 0.478
1254 K, x1 = 0.6306 | -4.79 ± 0.478
1254 K, x1 = 0.6313 | -5 ± 0.478
1254 K, x1 = 0.6768 | -4.7 ± 0.478
1254 K, x1 = 0.7157 | -4.28 ± 0.478
1254 K, x1 = 0.7353 | -3.76 ± 0.478
1254 K, x1 = 0.8259 | -2.59 ± 0.478
1254 K, x1 = 0.9396 | -0.962 ± 0.478
